Measurements from paper PMC11435625, “In Vitro Hepatic Clearance Evaluations of Per- and Polyfluoroalkyl Substances (PFAS) across Multiple Structural Categories” (Toxics, 2024).

Legend:
[1] = test system: pooled primary human hepatocyte suspensions; test: Hepatic clearance assay (substrate depletion, LC-MS); conditions: in µL/min/10^6 cells; for CLint for HTTK: CLint value carried into HTTK/IVIVE; for in vitro CLint exp assay / Unadj Clint: pooled primary human hepatocyte suspensions; for Unadj Clint: unadjusted hepatic intrinsic clearance, Table S4
Method: The rate of hepatic clearance was determined as previously described for a set of PFAS [11]. Analysis was conducted across two laboratories at the Division of Translational Toxicology (DTT) at the National Institute of Environmental Health Sciences (NIEHS) and the Center for Computational Toxicology and Exposure at the USEPA. The PFAS analyzed in each lab can be found in the Supplementary Materials.
The hepatic clearance assay was performed at both the DTT and EPA laboratories as described below. The pooled human hepatocyte suspensions used in this work were purchased commercially and meet the ethical and scientific standards described in the Human Ethics Rule (40 CFR 26). The suspensions were prepared from hepatocytes obtained from de-identified donors by a commercial vendor.
PFAS stock solutions prepared in DMSO were added to prewarmed William’s E medium to make a 2X working stock solution (2 µM). […] The working stock solutions were then transferred to a 96-well polypropylene plate and placed in an incubator at 37 °C with 5% carbon dioxide prior to adding cells. Cryopreserved pooled primary human hepatocyte suspensions (50-donor pool, mixed gender; BioIVT; Westbury, NY, USA) were thawed and transferred to vials containing hepatocyte thawing medium. After centrifuging for 5–10 min at 100× g, thawing medium was removed, being careful not to disturb the cell pellet. The primary human hepatocytes were then resuspended in pre-warmed complete Williams E medium to achieve a cell density of ~1.0 × 10^6 viable cells/mL as determined by Trypan Blue exclusion. Cells were then added to the 96-well incubation plates containing PFAS to achieve a final density of ~0.5 × 10^6 viable cells/mL and a 1 μM assay concentration (Ctest), then placed in incubator on a shaker at 300 rpm. Triplicate samples were removed from the incubator at time points ranging from 0 to 240 min and quenched with a total crash in 2–3 volumes of ice-cold acetonitrile. Samples were spun at 4000× g for 20 min, and supernatants were transferred to new tubes and stored at <−70 °C until analysis. Media-only (no cell) and/or heat-inactivated hepatocytes were included as negative controls for each chemical to evaluate and estimate chemical loss due to nonmetabolic processes (e.g., hydrolysis). Phenacetin was included in all runs as an assay reference compound; EPA also included propranolol as an additional reference compound.
Assay samples were diluted in mobile phase and analyzed using a Thermo Vanquish UPLC system with a Thermo Hypersil Gold aQ C18 column (100 × 2.1 mm, 1.9 […], Thermo Fisher Scientific Inc.) coupled to a Q Exactive Plus mass spectrometer. Gradient elution was used in the chromatographic separations using water with 20 mM ammonium acetate (mobile phase A) and methanol (mobile phase B), with the following gradient program: 0.5–7 min, 30%–90% B; 7–8 min, 90% B; 8–9 min, 90%–30% B; and 9–10 min, 30% B. The first minute of each injection was diverted to waste to avoid introduction of excessive salts from incubation medium. Analysis was detected in negative ion mode. Samples were quantified against an external, matrix-matched calibration curve. Additional methodologic information is available in Table S2.
To perform SPE, a positive-pressure manifold was employed along with Oasis WAX µElution plates and Oasis HLB 30 mg plates (Waters, Milford, MA, USA) for PFAS and positive-control extraction, respectively. […] The sorbent was then washed with 1% formic acid and water. Samples were eluted in 2% ammonia in methanol for analysis. Similarly, HLB plates were conditioned with methanol and water before sample was loaded onto the sorbent. The wells were then washed with 5% methanol in water and water before elution in methanol. For samples not undergoing SPE, the supernatant of the crashed assay sample was diluted in mobile phase prior to analysis. The first 1.5 min of the run was diverted to waste to prevent salt contamination.

[2] = IVIVE: steady-state concentration (Css), generic HTTK model; parameters: species or system human; conditions: for Css (mg/L) / Css (uM): Assuming 1 mg/kg/day dose rate, BW 70 kg; for CLhep: QL 1500000 uL/min; for Fub: fub=fup/(B:P), Fub set to 1 if needed; for CLint: scaled to whole liver: HPGL 110 mill cells/g, Vl 1596 g
Method: IVIVE was performed as previously described to calculate human steady-state concentrations (Css). Briefly, experimental plasma protein binding data presented elsewhere were transformed to fraction unbound in blood using blood-to-plasma partitioning values. Experimental Clint values generated here are used in conjunction with relevant liver scalars to scale up to estimate whole liver clearance. […] Once Css values were established, these were used with the PFAS-specific in vitro POD data to calculate the administered equivalent doses (AEDs) using reverse dosimetry. […] The fifth-percentile AC50 value was used to define the in vitro POD. All relevant inputs, scalars, and calculations are provided in Supplementary Information, as indicated in the results.

plasma protein = conditions: fraction unbound in plasma, input for IVIVE calculations; cited from earlier work

Structure (SMILES) | CLint for HTTK [1] | in vitro CLint exp assay [1] | Css (mg/L) [2] | Css (uM) [2] | CLhep [2] | Fub [2] | CLint [2] | Mean fu (plasma protein) | Unadj Clint [1]
O=C(O)CCC(F)(F)C(F)(F)C(F)(F)F | 0 | 0 | 4.66 mg/L | 19.25 µM | 0.000 L/h | 0.09418 | 0 µL/min | 0.0518 | –
CCNS(=O)(=O)C(F)(F)C(F)(F)C(F)(F)C(F)(F)C(F)(F)C(F)(F)C(F)(F)C(F)(F)F | 8.96 | 8.96 | 0.58 mg/L | 1.10 µM | 4.700 L/h | 0.05255 | 1573018 µL/min | 0.0289 | –
CNS(=O)(=O)C(F)(F)C(F)(F)C(F)(F)C(F)(F)C(F)(F)C(F)(F)C(F)(F)C(F)(F)F | 23.23 | 23.23 | 0.58 mg/L | 1.13 µM | 4.921 L/h | 0.02127 | 4078259 µL/min | 0.0117 | –
O=C(Cl)C(F)(F)C(F)(F)C(F)(F)C(F)(F)C(F)(F)C(F)(F)C(F)(F)F | 0 | 0 | 3584.17 mg/L | 8297.84 µM | 0.000 L/h | 0.0001224 | 0 µL/min | 0.0001 | –
O=S(=O)(Cl)C(F)(F)C(F)(F)C(F)(F)C(F)(F)C(F)(F)C(F)(F)C(F)(F)C(F)(F)F | 0 | 0.00 | 41.78 mg/L | 80.68 µM | 0.000 L/h | 0.0105 | 0 µL/min | 0.0109 | –
O=C(O)C(F)(F)C(F)(F)OC(F)(F)F | 0 | 0 | 3.16 mg/L | 13.74 µM | 0.000 L/h | 0.1389 | 0 µL/min | 0.0764 | –
O=C(O)C(F)(F)C(F)(F)C(F)(F)OC(F)(C(F)(F)F)C(F)(F)F | 5.78 | 5.78 | 11.42 mg/L | 30.05 µM | 0.232 L/h | 0.003818 | 1014737 µL/min | 0.0021 | –
O=C(O)C(F)(F)C(F)(F)C(F)(F)OC(F)(F)F | 1.5 | 1.5 | 6.16 mg/L | 22.00 µM | 0.335 L/h | 0.02127 | 263340 µL/min | 0.0117 | –
C[N+](C)(C)CCCNS(=O)(=O)C(F)(F)C(F)(F)C(F)(F)C(F)(F)C(F)(F)C(F)(F)C(F)(F)C(F)(F)F.[I-] | 0 | 0 | 19.15 mg/L | 31.97 µM | 0.000 L/h | 0.02291 | 0 µL/min | 0.0126 | 4.28
O=S(=O)([O-])C(F)(F)C(F)(F)C(F)(F)C(F)(F)C(F)(F)C(F)(F)F.[K+] | 0 | 0 | 241.34 mg/L | 603.44 µM | 0.000 L/h | 0.001818 | 0 µL/min | 0.001 | –
O=S(=O)([O-])C(F)(F)C(F)(F)C(F)(F)C(F)(F)C(F)(F)C(F)(F)C(F)(F)C(F)(F)F.[K+] | 0 | 2.96 | 60.34 mg/L | 120.69 µM | 0.000 L/h | 0.007273 | 0 µL/min | 0.004 | –
O=S(=O)(OCC(F)(F)F)C(F)(F)C(F)(F)C(F)(F)C(F)(F)F [2,2,2-Trifluoroethyl perfluorobutanesulfonate] | 0 | 0.00 | 65.09 mg/L | 170.41 µM | 0.000 L/h | 0.006742 | 0 µL/min | 0.0039 | 2.84
O=C(O)C(F)(F)C(F)(F)C(F)F [4H-Perfluorobutanoic acid] | – | – | – | – | – | – | – | – | 0.90
O=C(O)CCC(F)(F)C(F)(F)C(F)(F)C(F)(F)C(F)(F)C(F)(F)F [6:3 Fluorotelomer carboxylic acid] | – | – | – | – | – | – | – | – | 5.05
N.O=C(O)C(F)(F)C(F)(F)C(F)(F)C(F)(F)C(F)(F)C(F)(F)C(F)(F)F [Ammonium perfluorooctanoate] | – | – | – | – | – | – | – | – | 2.06
O=C(O)C(F)(F)C(F)(F)C(F)(F)OC(F)(F)F [Perfluoro(4-methoxybutanoic) acid] | – | – | – | – | – | – | – | – | 1.50
O=S(=O)(Cl)C(F)(F)C(F)(F)C(F)(F)C(F)(F)C(F)(F)C(F)(F)C(F)(F)C(F)(F)F [Perfluoro-1-octanesulfonyl chloride] | – | – | – | – | – | – | – | – | 0.00
O=C(O)C(F)(F)OC(F)(F)C(F)(F)OC(F)(F)F [Perfluoro-3,6-dioxaheptanoic acid] | – | – | – | – | – | – | – | – | 0.00
O=C(O)C(F)(F)C(F)(F)C(F)(F)F [Perfluorobutanoic acid] | – | – | – | – | – | – | – | – | 0.08
O=C(O)C(F)(F)C(F)(F)F [Perfluoropropanoic acid] | – | – | – | – | – | – | – | – | 0.59
O=C(O)C(F)(F)C(F)(F)C(F)(F)C(F)(F)C(F)(F)C(F)(F)C(F)(F)C(F)(F)C(F)(F)C(F)(F)C(F)(F)C(F)(F)C(F)(F)F [Perfluorotetradecanoic acid] | – | – | – | – | – | – | – | – | 0.00
O=C(O)C(F)(F)C(F)(F)C(F)(F)C(F)(F)C(F)(F)C(F)(F)C(F)(F)C(F)(F)C(F)(F)C(F)(F)F [Perfluoroundecanoic acid] | – | – | – | – | – | – | – | – | 0.00
O=S(=O)([O-])C(F)(F)C(F)(F)C(F)(F)C(F)(F)F.[K+] [Potassium perfluorobutanesulfonate] | – | – | – | – | – | – | – | – | 0.00
O=S(=O)([O-])C(F)(F)C(F)(F)C(F)(F)C(F)(F)C(F)(F)C(F)(F)C(F)(F)C(F)(F)F.[K+] [Potassium perfluorooctanesulfonate] | – | – | – | – | – | – | – | – | 2.96
O=C([O-])C(F)(F)C(F)(F)C(F)(F)C(F)(F)C(F)(F)C(F)(F)C(F)(F)F.[K+] [Potassium perfluorooctanoate] | – | – | – | – | – | – | – | – | 0.00
O=S(=O)([O-])C(F)(F)C(F)(F)C(F)(F)C(F)(F)C(F)(F)C(F)(F)C(F)(F)C(F)(F)C(F)(F)C(F)(F)F.[Na+] [Sodium perfluorodecanesulfonate] | – | – | – | – | – | – | – | – | 3.39
O=C(O)C(F)(F)C(F)(F)C(F)(F)C(F)(F)C(F)(F)C(F)(F)C(F)(F)F [Sodium perfluorooctanoate] | – | – | – | – | – | – | – | – | 2.34
